Experimental data published in patent US9096598B2 (Merck Sharp & Dohme Corp., priority 2011, dated 2015).
pIC50: −log10 of the molar value.

Tests used:
JAK3 = target: T1, JAK3 (Homo sapiens, UniProt P52333); experiment: Jak Biochemical HTRF Assay (JAK3); details: recombinant purified GST-tagged catalytic domain, [ATP] 2.9 μM, values given as range classes
T1 construct: recombinant purified GST-tagged catalytic domain for each enzyme; purchased Invitrogen M4290
Method: (§1) Jak Biochemical HTRF Assay Protocol
(§2) The ability of compounds to inhibit the activity of JAK1, JAK2, JAK3, and Tyk2 was measured using a recombinant purified GST-tagged catalytic domain for each enzyme (Invitrogen JAK1 #M4290, JAK2 #M4290, JAK3 #M4290, Tyk2 #M4290) in an HTRF format biochemical assay. The reactions employed a common peptide substrate, LCB-EQEDEPEGDYFEWLW-NH2 (in-house). The basic assay protocol is as follows: First, 250 nL of diluted compounds in DMSO were dispensed into the wells of a dry 384-well Black plate (Greiner #781076) using a Labcyte Echo 555 acoustic dispenser. Subsequent reagent additions employed an Agilent Bravo. Next, 18 μL of 1.11× enzyme and 1.11× substrate in 1× assay buffer (Invitrogen kinase buffer #PV3189, 2 mM DTT, 0.05% BSA) were added to the wells and shaken and then preincubated for 30 minutes at room temperature to allow compound binding to equilibrate. After equilibration, 2 μL of 10×ATP in 1× assay buffer was added to initiate the kinase reaction and the plates were shaken and then incubated at room temperature for 120 minutes. At the end of the incubation, 20 μL of 2× stop buffer (streptavidin-Dylight 650 (Thermo #84547B/100 mL), Eu-tagged pY20 antibody (Perkin Elmer #AD0067), EDTA, HEPES, and Triton) was added to quench the reaction. Plates were shaken and centrifuged and then incubated 60 minutes at room temperature and then read on a Perkin Elmer Envision (λex=337 nm, λem=665 and 615 nm, TRF delay time=20 μs). HTRF signal=10,000*665 nm reading/615 nm reading. After normalization to untreated controls, the percent inhibition of the HTRF signal at each compound concentration was calculated. The plot of percent inhibition versus the log of compound concentration was fit with a 4-parameter dose response equation to calculate IC50 values.
(§3) Final reaction conditions were:
(§4) Examples of the instant invention were evaluated in JAK2 and JAK3 in vitro binding assays. Table 13 tabulates the biological data disclosed for the instant invention as a range of JAK2 and JAK3 IC50 values (A: IC50≦10 nM; B: 10 nM>IC50≦500 nM C: IC50>500 nM).

JAK2 = target: T2, JAK2 (Homo sapiens, UniProt O60674); experiment: Jak Biochemical HTRF Assay (JAK2); details: recombinant purified GST-tagged catalytic domain, [ATP] 8.5 μM, values given as range classes
T2 construct: recombinant purified GST-tagged catalytic domain for each enzyme; purchased Invitrogen M4290
Method: as §1, §2, §3, §4

T2 sequence (O60674 849-1124 limits assumed): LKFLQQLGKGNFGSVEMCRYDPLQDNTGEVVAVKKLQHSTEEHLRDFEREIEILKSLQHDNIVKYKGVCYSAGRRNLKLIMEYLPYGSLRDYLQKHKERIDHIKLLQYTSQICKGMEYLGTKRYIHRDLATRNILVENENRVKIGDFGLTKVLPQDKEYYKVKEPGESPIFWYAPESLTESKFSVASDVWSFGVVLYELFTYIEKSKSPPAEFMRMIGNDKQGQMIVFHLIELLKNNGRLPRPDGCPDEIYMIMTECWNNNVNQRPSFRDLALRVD
T1 sequence (P52333 822-1111 limits assumed): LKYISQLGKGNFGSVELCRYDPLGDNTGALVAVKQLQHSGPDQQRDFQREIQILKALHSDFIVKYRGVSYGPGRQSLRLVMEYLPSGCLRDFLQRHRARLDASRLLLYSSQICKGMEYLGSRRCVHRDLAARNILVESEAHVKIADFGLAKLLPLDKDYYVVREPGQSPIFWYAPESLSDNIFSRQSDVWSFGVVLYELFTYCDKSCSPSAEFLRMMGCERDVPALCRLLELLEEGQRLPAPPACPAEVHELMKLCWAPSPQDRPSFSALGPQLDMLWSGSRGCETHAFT

| Structure (SMILES) | pIC50 (JAK3) | pIC50 (JAK2) |
| --- | --- | --- |
| C[C@H](Nc1cc(-c2c[nH]c3ncc(Cl)cc23)cnc1F)C(=O)NCC(F)(F)F [Example 1-39, N~2~-[5-(5-chloro-1H-pyrrolo[2,3-b]pyridin-3-yl)-2-fluoropyridin-3-yl]-N-(2,2,2-trifluoroethyl)alaninamide] | ≥ 8.00 | 6.30 to 8.00 |
| CC(C)C(Nc1cncc(-c2c[nH]c3ncc(OCC4CCN(C)CC4)cc23)c1)C(=O)NCC(F)(F)F (stereo not drawn) [Example 2-18, N~2~-(5-{5-[(1-methylpiperidin-4-yl)methoxy]-1H-pyrrolo[2,3-b]ppidin-3-yl}pyridin-3-yl)-N-(2,2,2-trifluoroethyl)valinamide] | ≥ 8.00 | 6.30 to 8.00 |
| Fc1cnc2[nH]cc(-c3nncc(N4CCCC4c4nccs4)n3)c2c1 (stereo not drawn) [Example 1-11, 5-fluoro-3-{5-[2-(1,3-thiazol-2-yl)pyrrolidin-1-yl]-1,2,4-triazin-3-yl}-1H-pyrrolo[2,3-b]pyridine] | 6.30 to 8.00 | 6.30 to 8.00 |
| CC(C)[C@H](Nc1cncc(-c2c[nH]c3ncc(OC4Cc5ccccc5C4)cc23)c1)C(=O)NCC(F)(F)F [Example 2-8, N~2~-{5-[5-(2,3-dihydro-1H-inden-2-yloxy)-1H-pyrrolo[2,3-b]pyridin-3-yl]pyridin-3-yl}-N-(2,2,2-trifluoroethyl)valinamide] | ≥ 8.00 | 6.30 to 8.00 |
| CC(C)C(Nc1cncc(-c2c[nH]c3ncc(O)cc23)c1)C(=O)NCC(F)(F)F (stereo not drawn) [Example 2-1, 2-{[5-(5-hydroxy-1H-pyrrolo[2,3-b]pyridin-3-yl)pyridin-3-yl]amino}-3-methyl-N-(2,2,2-trifluoroethyl)butanamide] | ≥ 8.00 | 6.30 to 8.00 |
| C[C@@H](Nc1cnnc(-c2c[nH]c3ncc(Cl)cc23)c1)C(=O)NCC(F)(F)F [Example 1-24, N~2~-[6-(5-chloro-1H-pyrrolo[2,3-b]pyridin-3-yl)pyridazin-4-yl]-N-(2,2,2-trifluoroethyl)-D-alaninamide] | ≥ 8.00 | 6.30 to 8.00 |
| C[C@@H](Nc1cncc(-c2c[nH]c3ncc(S(C)(=O)=O)cc23)c1)C(=O)NCC(F)(F)F [Example 1-34, N~2~-{5-[5-(methylsulfonyl)-1H-pyrrolo[2,3-b]pyridin-3-yl]pyridin-3-yl}-N-(2,2,2-trifluoroethyl)-D-alaninamide] | ≥ 8.00 | < 6.30 |
| C[C@@H](Nc1cncc(-c2c[nH]c3ncc(Cl)c(F)c23)c1)C(=O)NCC(F)(F)F [Example 1-36, N~2~-[5-(5-chloro-4-fluoro-1H-pyrrolo[2,3-b]pyridin-3-yl)pyridin-3-yl]-N-(2,2,2-trifluoroethyl)-D-alaninamide] | 6.30 to 8.00 | < 6.30 |
| C[C@@H](Nc1cnnc(-c2c[nH]c3ncc(C(F)(F)F)cc23)c1)C(=O)NCC(F)(F)F [Example 1-25, N-(2,2,2-trifluoroethyl)-N~2~-{6-[5-(trifluoromethyl)-1H-pyrrolo[2,3-b]pyridin-3-yl]pyridazin-4-yl}-D-alaninamide] | ≥ 8.00 | 6.30 to 8.00 |
| O=C(NCC(F)(F)F)[C@H]1CCCC[C@H]1Nc1cncc(-c2c[nH]c3ncc(F)cc23)c1 [Example 1-37, (1S,2R)-2-{[5-(5-fluoro-1H-pyrrolo[2,3-b]pyridin-3-yl)pyridin-3-yl]amino}-N-(2,2,2-trifluoroethyl)cyclohexane-carboxamide] | ≥ 8.00 | 6.30 to 8.00 |
| C[C@@H](Nc1cncc(-c2c[nH]c3ncc(Cl)cc23)c1)C(=O)NCC(F)(F)F [Example 1-29, N~2~-[5-(5-chloro-1H-pyrrolo[2,3-b]pyridin-3-yl)pyridin-3-yl]-N-(2,2,2-trifluoroethyl)-D-alaninamide] | ≥ 8.00 | 6.30 to 8.00 |
| O=C(NCC(F)(F)F)[C@H]1CCCC[C@H]1Nc1cnnc(-c2c[nH]c3ncc(Cl)cc23)n1 [Example 1-19, (1S,2R)-2-{[3-(5-chloro-1H-pyrrolo[2,3-b]pyridin-3-yl)-1,2,4-triazin-5-yl]amino}-N-(2,2,2-trifluoroethyl)cyclohexane-carboxamide] | 6.30 to 8.00 | 6.30 to 8.00 |
| C[C@@H](Nc1cnnc(-c2c[nH]c3ncc(F)cc23)n1)C(=O)NCC(F)(F)F [Example 1-8, N~2~-[3-(5-fluoro-1H-pyrrolo[2,3-b]pyridin-3-yl)-1,2,4-triazin-5-yl]-N-(2,2,2-trifluoroethyl)-D-alaninamide] | 6.30 to 8.00 | 6.30 to 8.00 |
| CC(C)C(Nc1cncc(-c2c[nH]c3ncc(C(N)=O)cc23)c1)C(=O)NCC(F)(F)F (stereo not drawn) [Example 1-42, 3-[5-({2-methyl-1-[(2,2,2-trifluoroethyl)carbamoyl]propyl}amino)pridin-3-yl]-1H-pyrrolo[2,3-b]pyridine-5-carboxamide] | ≥ 8.00 | 6.30 to 8.00 |

The remaining lines, values ahead:

| pIC50 (JAK3) | pIC50 (JAK2) | Structure (SMILES) |
| --- | --- | --- |
| ≥ 8.00 | 6.30 to 8.00 | CC(C)CNC(=O)c1cnc2[nH]cc(-c3cncc(N[C@@H](C(=O)NCC(F)(F)F)C(C)C)c3)c2c1 [Example 3-7, N-(2-methylpropyl)-3-[5-({(1R)-2-methyl-1-[(2,2,2-trifluoroethyl)carbamoyl]propyl}amino)pyridin-3-yl]-1H-pyrrolo[2,3-b]pyridine-5-carboxamide] |
| ≥ 8.00 | ≥ 8.00 | CC(C)[C@@H](Nc1cncc(-c2c[nH]c3ncc(C(=O)NCc4cnn(C)c4)cc23)c1)C(=O)NCC(F)(F)F [Example 3-12, N-[(1-methyl-1H-pyrazol-4-yl)methyl]-3-[5-({(1R)-2-methyl-1-[(2,2,2-trifluoroethyl)carbamoyl]propyl}amino)pyridin-3-yl]-1H-pyrrolo[2,3-b]pyridine-5-carboxamide] |
| 6.30 to 8.00 | 6.30 to 8.00 | CC(C)[C@@H](Nc1cncc(-c2c[nH]c3ncc(COCCN4CCCC4)cc23)c1)C(=O)NCC(F)(F)F [Example 9-1, (R)-3-methyl-2-(5-(5-((2-(pyrrolidin-1-yl)ethoxy)methyl)-1H-pyrrolo[2,3-b]pyridin-3-yl)pyridin-3-ylamino)-N-(2,2,2-trifluoroethyl)butanamide] |
| ≥ 8.00 | ≥ 8.00 | CC(C)[C@@H](Nc1cncc(-c2c[nH]c3ncc(-c4cnn(C)c4)cc23)c1)C(=O)NCC(F)(F)F [Example 8-3, N^2-{5-[5-(1-methyl-1H-pyrazol-4-yl)-1H-pyrrolo[2,3-b]pyridin-3-yl]pyridin-3-yl}-N-(2,2,2-trifluoroethyl)-D-valinamide] |
| 6.30 to 8.00 | < 6.30 | Cc1ncoc1C(=O)NCc1cnc2[nH]cc(-c3cncc(N[C@H](C(=O)NCC(F)(F)F)C(C)C)c3)c2c1 [Example 10-7, N~2~-{5-[5-({[(4-methyl-1,3-oxazol-5-yl)carbonyl]amino}methyl)-1H-pyrrolo[2,3-b]pyridin-3-yl]pyridin-3-yl}-N-(2,2,2-trifluoroethyl)valinamide] |
| ≥ 8.00 | 6.30 to 8.00 | CC(C)[C@@H](Nc1cncc(-c2c[nH]c3ncc(COCCN4CCOCC4)cc23)c1)C(=O)NCC(F)(F)F [Example 9-4, N~2~-(5-{5-[(2-morpholin-4-ylethoxy)methyl]-1H-pyrrolo[2,3-b]pyridin-3-yl}pyridin-3-yl)-N-(2,2,2-trifluoroethyl)-D-valinamide] |
| ≥ 8.00 | 6.30 to 8.00 | CC(C)C(Nc1cncc(-c2c[nH]c3ncc(S(N)(=O)=O)cc23)c1)C(=O)NCC(F)(F)F (stereo not drawn) [Example 4-1, 3-Methyl-2-(5-(5-sulfamoyl-1H-pyrrolo[2,3-b]pyridin-3-yl)pyridin-3-ylamino)-N-(2,2,2-trifluoroethyl)butanamide] |
| 6.30 to 8.00 | < 6.30 | CC(C)C(Nc1cncc(-c2c[nH]c3ncc(CNC(=O)C4CCCC4)cc23)c1)C(=O)NCC(F)(F)F (stereo not drawn) [Example 10-1, N-((3-(5-(3-methyl-1-oxo-1-(2,2,2-trifluoroethylamino)butan-2-ylamino)pyridin-3-yl)-1H-pyrrolo[2,3-b]pyridin-5-yl)methyl)cyclopentanecarboxamide] |
| ≥ 8.00 | 6.30 to 8.00 | CC(C)[C@@H](Nc1cncc(-c2c[nH]c3ncc(COCCN4CCN(C(=O)OC(C)(C)C)CC4)cc23)c1)C(=O)NCC(F)(F)F [Example 9-3, tert-butyl 4-[2-({3-[5-({(1R)-2-methyl-1-[(2,2,2-trifluoroethyl)carbamoyl]propyl}amino)pyridin-3-yl]-1H-pyrrolo[2,3-b]pyridin-5-yl}methoxy)ethyl]piper-azine-1-carboxylate] |
| ≥ 8.00 | ≥ 8.00 | CC(C)[C@@H](Nc1cncc(-c2c[nH]c3ncc(C(=O)NCC4(O)CC4)cc23)c1)C(=O)NCC(F)(F)F [Example 3-14, N-[(1-hydroxycyclopropyl)methyl]-3-[5-({(1R)-2-methyl-1-[(2,2,2-trifluoroethyl)carbamoyl]propyl}amino)pyridin-3-yl]-1H-pyrrolo[2,3-b]pyridine-5-carboxamide] |
